We go through 21 molecules from patent US8697739B2, “Bicyclic acetyl-CoA carboxylase inhibitors and uses thereof” (Novartis AG, priority 2010, dated 2014).

A word on the IC50: it is the midpoint of a concentration-inhibition curve. A word on the EC50: it is the concentration that produces a half-maximal response. Low values mean a more potent agent, high ones a less potent agent. What is called CC50 is the concentration at which the toxic effect on the cells reaches its halfway point. Lower therefore signals greater toxicity to the cells.

Data set [1] deals with T1, human acetyl-CoA carboxylase 2 (ACC2) (Homo sapiens, UniProt O00763).
T1 construct: The cDNA encoding amino acids 144 to 2458 of human acetyl-CoA carboxylase 2; made in house; host or cells: Sf9 insect cells (baculovirus, pFastBac1)
The experiment in a line: Acetyl-CoA carboxylase enzyme assay (malonyl-CoA formation by LC/MS/MS). The data set is classed as biochemical. The conditions noted are these: recombinant human ACC2 (aa 144-2458); read-out: IC50 ACC2. The method, boiled down: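 Malonyl-CoA formation was read by LC/MS/MS MRM against a [13C3]-malonyl-CoA internal standard, after acetic acid quench. The enzyme was baculovirus/Sf9-expressed human ACC2 residues 144–2458, given 15 minutes room-temperature compound preincubation in HEPES pH 7.5 buffer with MgCl2, citrate and DTT. Substrate solution held 50 μM acetyl-CoA, 120 μM ATP and 2 mM KHCO3.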

Data set [2] concerns HCVcc genotype 2a (JFH-1 strain) virus. Nature of the data set: HCV assay: JFH-1 rLuc infection of Huh 7.5 cells, renilla luciferase readout. In kind it is cell-based. The conditions noted are these: Hepatitis C virus, Huh7.5; JFH-1 rLuc virus, MOI=0.01, Huh 7.5 cells, 72 hours, luciferase activity reduced by 50%. As for the experimental part: (§1) The effect of compounds on HCV infection was determined in vitro using cell cultured (HCVcc) genotype 2a (JFH-1 strain) virus. A renilla luciferase reporter gene was inserted in the viral genome, the expression of which was under the control of HCV 5′UTR (JFH-1^rLuc). Thus, the inhibition of HCV infection or replication can be indirectly measured by the reduction of luciferase activity in the cells. A specifically adapted hepatoma cell line, Huh 7.5, which allowed higher infectivity of HCV in vitro, was cultured in Dulbecco's modified Eagle's medium (DMEM) supplemented with 2 mM L-glutamine, 0.1 mM non-essential amino acids and 10% heat-inactivated fetal bovine serum. The cells were infected with JFH-1^rLuc virus at an MOI=0.01 and were treated at the same time with serially diluted compounds. After 72 hours, luciferase activities in compound-treated cells were measured using the Renilla Luciferase Assay System (Promega) and were compared to those in untreated control cells. Concentration-dependent inhibition curves were generated, from which EC50 values, the concentrations of compounds at which luciferase activities were reduced by 50% relative to untreated control, were calculated. In parallel, cytotoxicity of compounds was determine by measuring the viability of compound-treated cells using CellTiter 96® AQueous One Solution Cell Proliferation Assay (Promega). CC50 represented the concentration of the compound at which cell viability was reduced by 50% compared to untreated control.

A further data set is described as follows: in vitro. In kind it is cell-based. The conditions noted are these: human. As for the experimental part:
as §1

T1 sequence (O00763 144-2458): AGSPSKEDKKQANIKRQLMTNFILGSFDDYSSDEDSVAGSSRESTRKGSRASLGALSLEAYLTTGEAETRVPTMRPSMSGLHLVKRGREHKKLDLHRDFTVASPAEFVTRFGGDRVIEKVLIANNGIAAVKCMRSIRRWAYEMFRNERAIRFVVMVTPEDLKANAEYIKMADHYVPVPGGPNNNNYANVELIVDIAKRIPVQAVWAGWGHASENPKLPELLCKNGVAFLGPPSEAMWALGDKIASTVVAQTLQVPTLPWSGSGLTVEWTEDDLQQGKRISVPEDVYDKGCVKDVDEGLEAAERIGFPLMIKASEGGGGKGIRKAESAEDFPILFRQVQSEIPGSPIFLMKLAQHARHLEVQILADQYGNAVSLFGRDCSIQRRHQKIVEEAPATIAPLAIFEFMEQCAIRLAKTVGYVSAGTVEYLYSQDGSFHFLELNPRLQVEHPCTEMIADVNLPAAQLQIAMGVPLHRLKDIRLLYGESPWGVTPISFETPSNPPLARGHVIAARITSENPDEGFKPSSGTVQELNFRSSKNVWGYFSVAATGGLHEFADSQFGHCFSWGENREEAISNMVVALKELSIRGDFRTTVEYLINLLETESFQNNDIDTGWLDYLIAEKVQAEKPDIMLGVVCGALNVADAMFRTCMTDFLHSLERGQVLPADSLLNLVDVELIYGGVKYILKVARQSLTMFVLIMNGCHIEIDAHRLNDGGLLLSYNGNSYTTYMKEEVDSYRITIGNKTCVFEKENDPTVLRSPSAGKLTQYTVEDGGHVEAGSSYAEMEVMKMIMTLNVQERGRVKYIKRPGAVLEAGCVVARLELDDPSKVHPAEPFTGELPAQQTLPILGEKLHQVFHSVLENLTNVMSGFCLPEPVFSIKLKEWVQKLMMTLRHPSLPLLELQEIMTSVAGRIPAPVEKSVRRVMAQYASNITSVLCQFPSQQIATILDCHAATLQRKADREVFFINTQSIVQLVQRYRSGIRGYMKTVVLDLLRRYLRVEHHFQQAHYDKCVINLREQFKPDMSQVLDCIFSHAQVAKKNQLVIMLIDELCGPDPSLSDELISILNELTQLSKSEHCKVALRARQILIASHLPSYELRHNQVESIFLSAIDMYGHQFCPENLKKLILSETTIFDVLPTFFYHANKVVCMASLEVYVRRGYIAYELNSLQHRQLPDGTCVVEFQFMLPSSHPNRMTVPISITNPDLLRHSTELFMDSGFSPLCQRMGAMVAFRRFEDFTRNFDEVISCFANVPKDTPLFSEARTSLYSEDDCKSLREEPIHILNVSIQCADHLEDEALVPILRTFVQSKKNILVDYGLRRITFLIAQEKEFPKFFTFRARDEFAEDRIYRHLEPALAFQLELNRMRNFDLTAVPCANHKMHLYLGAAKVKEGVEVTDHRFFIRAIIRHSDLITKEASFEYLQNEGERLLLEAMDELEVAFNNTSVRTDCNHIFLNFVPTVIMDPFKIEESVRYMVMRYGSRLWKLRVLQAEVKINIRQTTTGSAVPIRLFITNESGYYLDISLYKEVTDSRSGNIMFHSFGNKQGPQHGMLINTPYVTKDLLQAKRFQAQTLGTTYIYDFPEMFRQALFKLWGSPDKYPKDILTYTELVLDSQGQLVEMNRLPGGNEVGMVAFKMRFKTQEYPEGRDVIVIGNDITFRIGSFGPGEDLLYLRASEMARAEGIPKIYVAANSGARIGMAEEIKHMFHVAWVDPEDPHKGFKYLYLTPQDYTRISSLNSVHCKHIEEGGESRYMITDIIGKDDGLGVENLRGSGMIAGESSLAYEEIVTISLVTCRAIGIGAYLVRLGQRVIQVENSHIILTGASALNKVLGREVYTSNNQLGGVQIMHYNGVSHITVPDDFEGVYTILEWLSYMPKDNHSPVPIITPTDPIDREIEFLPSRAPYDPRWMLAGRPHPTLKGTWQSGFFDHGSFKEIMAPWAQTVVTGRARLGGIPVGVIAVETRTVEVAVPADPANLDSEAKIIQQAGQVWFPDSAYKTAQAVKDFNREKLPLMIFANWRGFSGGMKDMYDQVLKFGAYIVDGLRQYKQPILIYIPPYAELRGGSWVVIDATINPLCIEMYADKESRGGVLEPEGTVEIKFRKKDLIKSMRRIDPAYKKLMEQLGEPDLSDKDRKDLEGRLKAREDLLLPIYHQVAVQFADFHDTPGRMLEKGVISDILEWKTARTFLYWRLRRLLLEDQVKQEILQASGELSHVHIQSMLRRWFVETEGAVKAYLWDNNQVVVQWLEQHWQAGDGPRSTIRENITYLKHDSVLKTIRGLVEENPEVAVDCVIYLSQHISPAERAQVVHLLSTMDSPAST

As for `O=C([C@H]1CC[C@H](NS(=O)(=O)c2ccc3c(Cl)c(-c4ccccc4)[nH]c3c2)CC1)N1CCOC[C@@H]1C1CC1` [Example 474, 3-chloro-N-((1S,4r)-4-((S)-3-cyclopropylmorpholine-4-carbonyl)cyclohexyl)-2-phenyl-1H-indole-6-sulfonamide], the half-maximal inhibitory concentration (IC50) in data set [1] was under 10 nM. Further, the 50% effective concentration (EC50) in data set [2] was 29 nM. This molecule gave a 50% cytotoxic concentration (CC50) at 72 h in the data set “in vitro” of over 67000 nM.

Consider `CC(C)[C@H]1COCCN1C(=O)[C@H]1CC[C@H](NS(=O)(=O)c2ccc3cc(-c4ccc(CCC(=O)O)cc4)n(C)c3c2)CC1` [Example 29, 3-(4-(6-(N-((1S,4r)-4-((S)-3-isopropylmorpholine-4-carbonyl)cyclohexyl)sulfamoyl)-1-methyl-1H-indol-2-yl)phenyl)propanoic acid], for which the IC50 in data set [1] was under 10 nM. Also, in data set [2], the 50% effective concentration (EC50) is 2420 nM. The 50% cytotoxic concentration (CC50) at 72 h in “in vitro” is over 33000 nM.

Regarding `Cn1c(C2CC2)cc2ccc(S(=O)(=O)N[C@H]3CC[C@H](C(=O)N4CCOC[C@@H]4C4CC4)CC3)cc21` [Example 458, 2-cyclopropyl-N-((1S,4r)-4-((S)-3-cyclopropylmorpholine-4-carbonyl)cyclohexyl)-1-methyl-1H-indole-6-sulfonamide], the IC50 in data set [1] came to 35 nM. For the same molecule, in data set [2], the response was half-maximal at 240 nM (EC50). This molecule also displayed a CC50 at 72 h in the data set “in vitro” of over 33000 nM.

Regarding `Cn1c(-c2ccccc2)cc2ccc(S(=O)(=O)N[C@H]3CC[C@H](C(=O)N4CC5(CN(C(=O)OC(C)(C)C)C5)C4)CC3)cc21` [Example 483, tert-butyl 6-((1r,4r)-4-(1-methyl-2-phenyl-1H-indole-6-sulfonamido)cyclohexanecarbonyl)-2,6-diazaspiro[3.3]heptane-2-carboxylate], in data set [1], the IC50 was 75 nM. The molecule also displayed an EC50 in data set [2] of 40 nM. For the same molecule, in “in vitro”, the cytotoxic concentration (CC50) at 72 h is 16000 nM.

For `Cn1c(-c2ccc(CCC(=O)O)cc2)c(Cl)c2ccc(S(=O)(=O)N[C@H]3CC[C@H](C(=O)N4CCOC[C@@H]4C4CC4)CC3)cc21` [Example 28, 3-(4-(3-chloro-6-(N-((1S,4r)-4-((S)-3-cyclopropylmorpholine-4-carbonyl)cyclohexyl)sulfamoyl)-1-methyl-1H-indol-2-yl)phenyl)propanoic acid], in data set [1], the IC50 is under 10 nM. In data set [2], this molecule came in with an EC50 of 510 nM. The same molecule yielded a CC50 at 72 h in the data set “in vitro” of over 33000 nM.

For `Cn1c(-c2ccccc2)cc2ccc(S(=O)(=O)N[C@H]3CC[C@H](C(=O)N4CCN(c5ncccn5)CC4)CC3)cc21` [Example 431, 1-methyl-2-phenyl-N-((1r,4r)-4-(4-(pyrimidin-2-yl)piperazine-1-carbonyl)cyclohexyl)-1H-indole-6-sulfonamide], in data set [1], the concentration for half-maximal inhibition (IC50) was 130 nM. This molecule also displayed an EC50 in data set [2] of 2230 nM. Also, the CC50 at 72 h in “in vitro” was over 33000 nM.

In the case of `CC(C)[C@H]1COCCN1C(=O)[C@H]1CC[C@H](NS(=O)(=O)c2ccc3c(Cl)c(-c4ccc(CCC(=O)O)cc4)n(C)c3c2)CC1` [Example 25, 3-(4-(3-chloro-6-(N-((1S,4r)-4-((S)-3-isopropylmorpholine-4-carbonyl)cyclohexyl)sulfamoyl)-1-methyl-H-indol-2-yl)phenyl)propanoic acid], the half-maximal inhibitory concentration (IC50) in data set [1] was under 10 nM. In addition, in data set [2], the 50% effective concentration (EC50) amounted to 680 nM. Besides, in “in vitro”, the CC50 at 72 h is over 33000 nM.

For the molecule `C[C@@H](NC(=O)[C@H]1CC[C@H](NS(=O)(=O)c2cnc3c(c2)N(C(=O)OCCOCc2ccccc2)CCN3)CC1)c1ccc(F)cc1` [Example 208, 2-(benzyloxy)ethyl 7-(N-((1R,4r)-4-((R)-1-(4-fluorophenyl)ethylcarbamoyl)cyclohexyl)sulfamoyl)-3,4-dihydropyrido[3,2-b]pyrazine-1(2H)-carboxylate], in data set [1], the 50% inhibitory concentration (IC50) amounted to 595 nM. In data set [2], this molecule returned an EC50 of 4740 nM. This molecule had a cytotoxic concentration (CC50) at 72 h in “in vitro” of over 16700 nM.

`COCCc1ccc(-c2[nH]c3cc(S(=O)(=O)N[C@H]4CC[C@H](C(=O)N5CCOC[C@@H]5C)CC4)ccc3c2Cl)cc1` [Example 31, 3-chloro-2-(4-(2-methoxyethyl)phenyl)-N-((1S,4r)-4-((S)-3-methylmorpholine-4-carbonyl)cyclohexyl)-1H-indole-6-sulfonamide]: in data set [1], the half-inhibitory concentration (IC50) was under 10 nM. Moreover, in data set [2], a half-maximal effect (EC50) was put at 140 nM. Further, in “in vitro”, half-maximal cytotoxicity (CC50 at 72 h) was put at 24000 nM.

Consider `Cn1c(-c2ccccc2)cc2ccc(S(=O)(=O)N[C@H]3CC[C@H](C(=O)N4CCOC[C@@H]4C4CC4)CC3)cc21` [Example 479, N-((1S,4r)-4-((S)-3-cyclopropylmorpholine-4-carbonyl)cyclohexyl)-1-methyl-2-phenyl-1H-indole-6-sulfonamide], for which, in data set [1], the concentration for half-maximal inhibition (IC50) stood at 10 nM. In data set [2], this molecule had a 50% effective concentration (EC50) of 1270 nM. This molecule also gave a CC50 at 72 h in the data set “in vitro” of over 33000 nM.

In the case of `C[C@@H]1CN(C(=O)[C@H]2CC[C@H](NS(=O)(=O)c3ccc4c(Cl)c(-c5ccccc5)[nH]c4c3)CC2)C[C@H](C)O1` [Example 477, 3-chloro-N-((1R,4r)-4-((2S,6R)-2,6-dimethylmorpholine-4-carbonyl)cyclohexyl)-2-phenyl-1H-indole-6-sulfonamide], in data set [1], the concentration for half-maximal inhibition (IC50) is under 10 nM. Besides, in data set [2], the EC50 turned out to be 40 nM. In the data set “in vitro”, this molecule yielded a CC50 at 72 h of 12000 nM.

As to `COCCc1ccc(-c2cc3ccc(S(=O)(=O)N[C@H]4CC[C@H](C(=O)N5CCOC[C@@H]5C)CC4)cc3[nH]2)cc1` [Example 30, 2-(4-(2-methoxyethyl)phenyl)-N-((1S,4r)-4-((S)-3-methylmorpholine-4-carbonyl)cyclohexyl)-1H-indole-6-sulfonamide], in data set [1], the half-maximal inhibitory concentration (IC50) amounted to 10 nM. Further, the half-maximal effective concentration (EC50) in data set [2] was found to be 710 nM. For the same molecule, the half-maximal cytotoxic concentration (CC50) at 72 h in “in vitro” is over 33000 nM.

Regarding `CCOc1ccc2cc(S(=O)(=O)N[C@H]3CC[C@H](C(=O)N[C@H](COC(=O)[C@@H](NC)C(C)C)c4ccccc4)CC3)ccc2n1` [Example 272, (S)-((S)-2-((1r,4S)-4-(2-ethoxyquinoline-6-sulfonamido)cyclohexanecarboxamido)-2-phenylethyl) 3-methyl-2-(methylamino)butanoate], in data set [1], the IC50 was determined as 175 nM. Further, the concentration giving a half-maximal response (EC50) in data set [2] worked out at 14100 nM. Further, the cytotoxic concentration (CC50) at 72 h in the data set “in vitro” was over 16700 nM.

`Cn1c(C2CC2)cc2ccc(S(=O)(=O)N[C@H]3CC[C@H](C(=O)NC(C4CC4)C4CC4)CC3)cc21` [Example 459, (1r,4r)-4-(2-cyclopropyl-1-methyl-1H-indole-6-sulfonamido)-N-(dicyclopropylmethyl)cyclohexanecarboxamide]: the concentration for half-maximal inhibition (IC50) in data set [1] worked out at 630 nM. The concentration for a half-maximal effect (EC50) in data set [2] amounted to 210 nM. The molecule further displayed a cytotoxic concentration (CC50) at 72 h in “in vitro” of 26000 nM.

For `Cc1nc2cc(S(=O)(=O)NC3CCC(c4nnc(C(C)C)o4)CC3)ccc2[nH]1` (stereo not shown) [Example 613, N-((1r,4r)-4-(5-isopropyl-1,3,4-oxadiazol-2-yl)cyclohexyl)-2-methyl-1H-benzo[d]imidazole-5-sulfonamide], in data set [1], the IC50 came to 39600 nM.

On to `COCCc1ccc(-c2cc3ccc(S(=O)(=O)N[C@H]4CC[C@H](C(=O)N5CCOC[C@@H]5C)CC4)cc3n2C)cc1` [Example 444, 2-(4-(2-methoxyethyl)phenyl)-1-methyl-N-((1S,4r)-4-((S)-3-methylmorpholine-4-carbonyl)cyclohexyl)-1H-indole-6-sulfonamide], for which, in data set [1], the IC50 was found to be 20 nM.

Consider `C[C@@H]1CN(C(=O)[C@H]2CC[C@H](NS(=O)(=O)c3ccc4cc(-c5ccccc5)[nH]c4c3)CC2)C[C@H](C)O1` [Example 475, N-((1R,4r)-4-((2S,6R)-2,6-dimethylmorpholine-4-carbonyl)cyclohexyl)-2-phenyl-1H-indole-6-sulfonamide], for which the IC50 in data set [1] was 15 nM.

Regarding `C[C@@H](NC(=O)[C@H]1CC[C@H](NS(=O)(=O)c2ccc3[nH]c(-c4ccccc4)nc3c2)CC1)c1ccccc1` [Example 1, (1r,4R)-4-(2-phenyl-1H-benzo[d]imidazole-5-sulfonamido)-N—((R)-1-phenylethyl)cyclohexanecarboxamide], the concentration for half-maximal inhibition (IC50) in data set [1] is 13 nM.

Consider `Cn1c(-c2ccc(F)cc2)cc2ccc(S(=O)(=O)N[C@H]3CC[C@H](C(=O)N4CCNC(C(F)(F)F)C4)CC3)cc21` (stereo partly shown) [Example 344, 2-(4-fluorophenyl)-1-methyl-N-((1r,4r)-4-(3-(trifluoromethyl)piperazine-1-carbonyl)cyclohexyl)-1H-indole-6-sulfonamide], for which the half-maximal inhibitory concentration (IC50) in data set [1] is 60 nM.

For the molecule `CC(C)[C@H]1COCCN1C(=O)[C@H]1CC[C@H](NS(=O)(=O)c2ccc3cc(-c4ccccc4)[nH]c3c2)CC1` [Example 463, N-((1S,4r)-4-((S)-3-isopropylmorpholine-4-carbonyl)cyclohexyl)-2-phenyl-1H-indole-6-sulfonamide], the IC50 in data set [1] is under 10 nM.

For `CC(=O)c1ccc(Nc2nc3cc(S(=O)(=O)N[C@H]4CC[C@H](C(=O)N[C@H](C)c5ccccc5)CC4)ccc3[nH]2)cc1` [Example 572, (1r,4R)-4-(2-(4-acetylphenylamino)-1H-benzo[d]imidazole-5-sulfonamido)-N-((R)-1-phenylethyl)cyclohexanecarboxamide], the concentration for half-maximal inhibition (IC50) in data set [1] was under 10 nM.
